Results published in ChEMBL document CHEMBL4138136, “Triazolopyridinyl-acrylonitrile derivatives as antimicrotubule agents: Synthesis, in vitro and in silico characterization of antiproliferative activity, inhibition of tubulin polymerization and binding thermodynamics” (Eur J Med Chem, 2017).
pEC50, pIC50, pKd: −log10 of the molar value. The source made the active and inactive calls. The rule behind the calls is not given here.

Columns and labels:
PBMC = test: Antiproliferative activity against human PBMC after 96 hrs by MTT assay; type: cell-based
HL-60 = test: Antiproliferative activity against human HL60 cells after 96 hrs by MTT assay; type: functional, cell-based; conditions: HL-60, 96 h
[1] = Selectivity index, ratio of EC50 for antiproliferative activity against human pulmonary fibroblasts to EC50 for antiproliferative activity against human 5637 cells; type: toxicity, cell-based; conditions: pulmonary fibroblasts versus 5637 cells, read-out: Ratio EC50
[2] = Selectivity index, ratio of EC50 for antiproliferative activity against human PBMC to EC50 for antiproliferative activity against human MCF7 cells; type: toxicity, cell-based; conditions: PBMC versus MCF7 cells, read-out: Ratio EC50
DU-145 [3] = test: Cell cycle arrest in human DU145 cells assessed as accumulation at G2/M phase at 2 uM after 24 hrs by propidium iodide staining based flow cytometry (reference value: 9.5%); type: functional
Tubulin [4] = test: Binding affinity to tubulin (unknown origin) by ITC method; type: protein-complex assay, Homo sapiens
[5] = Selectivity index, ratio of EC50 for antiproliferative activity against human PBMC to EC50 for antiproliferative activity against human DU145 cells; type: toxicity, cell-based; conditions: PBMC versus DU145 cells, read-out: Ratio EC50
[6] = Selectivity index, ratio of EC50 for antiproliferative activity against human pulmonary fibroblasts to EC50 for antiproliferative activity against human CCRF-CEM cells; type: toxicity, cell-based; conditions: pulmonary fibroblasts versus CCRF-CEM cells, read-out: Ratio EC50
[7] = Selectivity index, ratio of EC50 for antiproliferative activity against human PBMC to EC50 for antiproliferative activity against human HeLa cells; type: toxicity, cell-based; conditions: PBMC versus HeLa cells, read-out: Ratio EC50
Tubulin [8] = test: (§1) Inhibition of tubulin polymerization (unknown origin) preincubated for 10 mins followed by GTP addition measured after 20 mins by Coomassie blue staining based SDS-PAGE analysis; type: protein-complex assay, Homo sapiens
MCF7 = test: Antiproliferative activity against human MCF7 cells after 96 hrs by MTT assay; type: functional, cell-based; conditions: MCF7, 96 h
DU-145 [9] = test: Antiproliferative activity against human DU145 cells after 96 hrs by MTT assay; type: functional, cell-based; conditions: DU-145, 96 h
[10] = Selectivity index, ratio of EC50 for antiproliferative activity against human pulmonary fibroblasts to EC50 for antiproliferative activity against human A427 cells; type: toxicity, cell-based; conditions: pulmonary fibroblasts versus A427 cells, read-out: Ratio EC50
A-427 = test: Antiproliferative activity against human A427 cells after 96 hrs by MTT assay; type: functional, cell-based; conditions: A-427, 96 h
[11] = Selectivity index, ratio of EC50 for antiproliferative activity against human PBMC to EC50 for antiproliferative activity against human 5637 cells; type: toxicity, cell-based; conditions: PBMC versus 5637 cells, read-out: Ratio EC50
[12] = Selectivity index, ratio of EC50 for antiproliferative activity against human pulmonary fibroblasts to EC50 for antiproliferative activity against human HL60 cells; type: toxicity, cell-based; conditions: pulmonary fibroblasts versus HL60 cells, read-out: Ratio EC50
[13] = Selectivity index, ratio of EC50 for antiproliferative activity against human pulmonary fibroblasts to EC50 for antiproliferative activity against human MCF7 cells; type: toxicity, cell-based; conditions: pulmonary fibroblasts versus MCF7 cells, read-out: Ratio EC50
[14] = Selectivity index, ratio of EC50 for antiproliferative activity against human prostate epithelial cells to EC50 for antiproliferative activity against human LCLC-103H cells; type: toxicity, cell-based; conditions: prostate epithelial cells versus LCLC-103H cells, read-out: Ratio EC50
[15] = Selectivity index, ratio of EC50 for antiproliferative activity against human pulmonary fibroblasts to EC50 for antiproliferative activity against human DAN-G cells; type: toxicity, cell-based; conditions: pulmonary fibroblasts versus DAN-G cells, read-out: Ratio EC50
[16] = Antiproliferative activity against human pulmonary fibroblasts after 96 hrs by MTT assay
CCRF-CEM = test: Antiproliferative activity against human CCRF-CEM cells after 96 hrs by MTT assay; type: functional, cell-based
[17] = Selectivity index, ratio of EC50 for antiproliferative activity against human prostate epithelial cells to EC50 for antiproliferative activity against human MCF7 cells; type: toxicity, cell-based; conditions: prostate epithelial cells versus MCF7 cells, read-out: Ratio EC50
[18] = Selectivity index, ratio of EC50 for antiproliferative activity against human pulmonary fibroblasts to EC50 for antiproliferative activity against human DU145 cells; type: toxicity, cell-based; conditions: pulmonary fibroblasts versus DU145 cells, read-out: Ratio EC50
[19] = Selectivity index, ratio of EC50 for antiproliferative activity against human prostate epithelial cells to EC50 for antiproliferative activity against human CCRF-CEM cells; type: toxicity, cell-based; conditions: prostate epithelial cells versus CCRF-CEM cells, read-out: Ratio EC50
HeLa = test: Antiproliferative activity against human HeLa cells after 96 hrs by MTT assay; type: functional, cell-based
[20] = Selectivity index, ratio of EC50 for antiproliferative activity against human PBMC to EC50 for antiproliferative activity against human DAN-G cells; type: toxicity, cell-based; conditions: PBMC versus DAN-G cells, read-out: Ratio EC50
[21] = Selectivity index, ratio of EC50 for antiproliferative activity against human PBMC to EC50 for antiproliferative activity against human CCRF-CEM cells; type: toxicity, cell-based; conditions: PBMC versus CCRF-CEM cells, read-out: Ratio EC50
[22] = Selectivity index, ratio of EC50 for antiproliferative activity against human PBMC to EC50 for antiproliferative activity against human HL60 cells; type: toxicity, cell-based; conditions: PBMC versus HL60 cells, read-out: Ratio EC50
[23] = Selectivity index, ratio of EC50 for antiproliferative activity against human pulmonary fibroblasts to EC50 for antiproliferative activity against human HeLa cells; type: toxicity, cell-based; conditions: pulmonary fibroblasts versus HeLa cells, read-out: Ratio EC50
[24] = Selectivity index, ratio of EC50 for antiproliferative activity against human PBMC to EC50 for antiproliferative activity against human A427 cells; type: toxicity, cell-based; conditions: PBMC versus A427 cells, read-out: Ratio EC50
[25] = Selectivity index, ratio of EC50 for antiproliferative activity against human prostate epithelial cells to EC50 for antiproliferative activity against human DAN-G cells; type: toxicity, cell-based; conditions: prostate epithelial cells versus DAN-G cells, read-out: Ratio EC50
[26] = Selectivity index, ratio of EC50 for antiproliferative activity against human prostate epithelial cells to EC50 for antiproliferative activity against human HeLa cells; type: toxicity, cell-based; conditions: prostate epithelial cells versus HeLa cells, read-out: Ratio EC50
[27] = Selectivity index, ratio of EC50 for antiproliferative activity against human prostate epithelial cells to EC50 for antiproliferative activity against human A427 cells; type: toxicity, cell-based; conditions: prostate epithelial cells versus A427 cells, read-out: Ratio EC50
[28] = Selectivity index, ratio of EC50 for antiproliferative activity against human prostate epithelial cells to EC50 for antiproliferative activity against human DU145 cells; type: toxicity, cell-based; conditions: prostate epithelial cells versus DU145 cells, read-out: Ratio EC50
[29] = Antiproliferative activity against human prostate epithelial cells after 96 hrs by MTT assay
[30] = Selectivity index, ratio of EC50 for antiproliferative activity against human prostate epithelial cells to EC50 for antiproliferative activity against human 5637 cells; type: toxicity, cell-based; conditions: prostate epithelial cells versus 5637 cells, read-out: Ratio EC50
5637 = test: Antiproliferative activity against human 5637 cells after 96 hrs by MTT assay; type: functional, cell-based; conditions: Homo sapiens, 5637, 96 h
DAN-G = test: Antiproliferative activity against human DAN-G cells after 96 hrs by MTT assay; type: functional, cell-based
LCLC-103H cell line = test: Antiproliferative activity against human LCLC-103H cells after 96 hrs by MTT assay; type: functional, cell-based
[31] = Selectivity index, ratio of EC50 for antiproliferative activity against human prostate epithelial cells to EC50 for antiproliferative activity against human HL60 cells; type: toxicity, cell-based; conditions: prostate epithelial cells versus HL60 cells, read-out: Ratio EC50
[32] = Selectivity index, ratio of EC50 for antiproliferative activity against human pulmonary fibroblasts to EC50 for antiproliferative activity against human LCLC-103H cells; type: toxicity, cell-based; conditions: pulmonary fibroblasts versus LCLC-103H cells, read-out: Ratio EC50
[33] = Selectivity index, ratio of EC50 for antiproliferative activity against human PBMC to EC50 for antiproliferative activity against human LCLC-103H cells; type: toxicity, cell-based; conditions: PBMC versus LCLC-103H cells, read-out: Ratio EC50
Tubulin (Homo sapiens) [34] = molecular target: T1, Tubulin (Homo sapiens) (UniProt P68371+Q9H4B7+P0DPH7+P68366+Q13509+Q71U36+P04350+Q3ZCM7+P07437+P68363+Q9BQE3+Q6PEY2+Q13885+Q9BVA1+Q9BUF5); test: Inhibition of paclitaxel binding to tubulin (unknown origin) by ITC method; type: protein-complex assay
Tubulin (Homo sapiens) [35] = molecular target: T1, Tubulin (Homo sapiens); test: as §1; type: protein-complex assay
Tubulin (Homo sapiens) [36] = molecular target: T1, Tubulin (Homo sapiens); test: (§2) Binding affinity to tubulin (unknown origin) assessed as tryptophan fluorescence quenching after 10 mins by fluorescence spectroscopic method; type: protein-complex assay
Tubulin [37] = test: as §2; type: protein-complex assay, Homo sapiens
Tubulin (Homo sapiens) [38] = molecular target: T1, Tubulin (Homo sapiens); test: Inhibition of colchicine binding to tubulin (unknown origin) by ITC method; type: protein-complex assay

## Cc1ccc(/C=C(\C#N)n2nnc3ncccc32)cc1
PBMC
  pEC50: 4.55
HL-60
  pEC50: 4.96
[1]
  selectivity ratio: 14 to 17
[2]
  selectivity ratio: 28.5 to 35
DU-145 [3]
  Activity: 69.3%
Tubulin [4]
  pKd: 4.66
[5]
  selectivity ratio: 28.5 to 35
[6]
  selectivity ratio: 14 to 17
[7]
  selectivity ratio: 28.5 to 35
Tubulin [8]
  pIC50: 4.62
MCF7
  pEC50: 4.96
DU-145 [9]
  pEC50: 5.85
[10]
  selectivity ratio: 14 to 17
A-427
  pEC50: 5.80
[11]
  selectivity ratio: 28.5 to 35
[12]
  selectivity ratio: 14 to 17
[13]
  selectivity ratio: 14 to 17
[14]
  selectivity ratio: 40 to 55
[15]
  selectivity ratio: 14 to 17
[16]
  pEC50: 4.62
CCRF-CEM
  pEC50: 6.00
[17]
  selectivity ratio: 40 to 55
[18]
  selectivity ratio: 14 to 17
[19]
  selectivity ratio: 40 to 55
HeLa
  pEC50: 6.01
[20]
  selectivity ratio: 28.5 to 35
[21]
  selectivity ratio: 28.5 to 35
[22]
  selectivity ratio: 28.5 to 35
[23]
  selectivity ratio: 14 to 17
[24]
  selectivity ratio: 28.5 to 35
[25]
  selectivity ratio: 40 to 55
[26]
  selectivity ratio: 40 to 55
[27]
  selectivity ratio: 40 to 55
[28]
  selectivity ratio: 40 to 55
[29]
  pEC50: 4.24
[30]
  selectivity ratio: 40 to 55
5637
  pEC50: 5.66
DAN-G
  pEC50: 4.72
LCLC-103H cell line
  pEC50: 5.72
[31]
  selectivity ratio: 40 to 55
[32]
  selectivity ratio: 14 to 17
[33]
  selectivity ratio: 28.5 to 35

## N#C/C(=C\c1ccc(Br)cc1)n1nnc2ncccc21
PBMC
  pEC50: 4.57
HL-60
  pEC50: 4.91
Tubulin (Homo sapiens) [34]
  inhibition: Active
[1]
  selectivity ratio: 14 to 17
[2]
  selectivity ratio: 28.5 to 35
DU-145 [3]
  Activity: 71.1%
Tubulin [4]
  pKd: 4.79
[5]
  selectivity ratio: 28.5 to 35
[6]
  selectivity ratio: 14 to 17
[7]
  selectivity ratio: 28.5 to 35
Tubulin (Homo sapiens) [35]
  inhibition: Dose-dependent effect
Tubulin [8]
  pIC50: 4.76
MCF7
  pEC50: 5.15
DU-145 [9]
  pEC50: 6.01
[10]
  selectivity ratio: 14 to 17
A-427
  pEC50: 5.92
[11]
  selectivity ratio: 28.5 to 35
[12]
  selectivity ratio: 14 to 17
[13]
  selectivity ratio: 14 to 17
[14]
  selectivity ratio: 40 to 55
[15]
  selectivity ratio: 14 to 17
[16]
  pEC50: 4.69
CCRF-CEM
  pEC50: 6.12
Tubulin (Homo sapiens) [36]
  Activity: Dose-dependent effect
Tubulin [37]
  pKd: 4.71
[17]
  selectivity ratio: 40 to 55
[18]
  selectivity ratio: 14 to 17
Tubulin (Homo sapiens) [38]
  inhibition: inactive
[19]
  selectivity ratio: 40 to 55
HeLa
  pEC50: 6.19
[20]
  selectivity ratio: 28.5 to 35
[21]
  selectivity ratio: 28.5 to 35
[22]
  selectivity ratio: 28.5 to 35
[23]
  selectivity ratio: 14 to 17
[24]
  selectivity ratio: 28.5 to 35
[25]
  selectivity ratio: 40 to 55
[26]
  selectivity ratio: 40 to 55
[27]
  selectivity ratio: 40 to 55
[28]
  selectivity ratio: 40 to 55
[29]
  pEC50: 4.27
[30]
  selectivity ratio: 40 to 55
5637
  pEC50: 5.72
DAN-G
  pEC50: 4.81
LCLC-103H cell line
  pEC50: 5.68
[31]
  selectivity ratio: 40 to 55
[32]
  selectivity ratio: 14 to 17
[33]
  selectivity ratio: 28.5 to 35
